Experimental data from PubChem BioAssay (NCI).
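Values below derive from 48-hour exposures of cells grown in 96-well plates, with endpoints linearly interpolated between the two concentrations bracketing the appropriate inhibition level. At the TGI there is no net growth.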

Experiments:
Assay in all cases: DTP human tumour cell line panel, 48 h
[1] = tested on: 786-0 renal
[2] = tested on: U251 CNS
[3] = tested on: NCI-H460 lung
[4] = tested on: IGROV1 ovarian
[5] = tested on: SNB-19 CNS
[6] = tested on: HOP-62 NSCLC
[7] = tested on: LXFL 529 NSCLC
[8] = tested on: SK-OV-3 ovarian
[9] = tested on: HCT-116 colon
[10] = tested on: TK-10 renal
[11] = tested on: RXF 393 renal
[12] = tested on: K-562 leukemia
[13] = tested on: HCT-15 colon
[14] = tested on: SK-MEL-28 melanoma
[15] = tested on: UO-31 renal
[16] = tested on: SR leukemia
[17] = tested on: A549 NSCLC
[18] = tested on: RPMI-8226 leukemia
[19] = tested on: M19-MEL melanoma
[20] = tested on: UACC-62 melanoma
[21] = tested on: SN12C renal
[22] = tested on: CCRF-CEM leukemia
[23] = tested on: M14 melanoma
[24] = tested on: MOLT-4 leukemia
[25] = tested on: SNB-75 CNS
[26] = tested on: LOX IMVI melanoma
[27] = tested on: OVCAR-8 ovarian
[28] = tested on: SF-539 CNS
[29] = tested on: SNB-78 CNS
[30] = tested on: DMS 114 small cell lung
[31] = tested on: NCI-H23 lung
[32] = tested on: UACC-257 melanoma
[33] = tested on: HCC-2998 colon
[34] = tested on: DMS 273 small cell lung
[35] = tested on: SK-MEL-5 melanoma
[36] = tested on: COLO 205 colon
[37] = tested on: HL-60(TB) leukemia
[38] = tested on: SF-268 CNS
[39] = tested on: HT29 colon
[40] = tested on: DLD-1 colon
[41] = tested on: OVCAR-4 ovarian
[42] = tested on: NCI-H226 lung
[43] = tested on: OVCAR-5 ovarian
[44] = tested on: SW-620 colon
[45] = tested on: ACHN renal
[46] = tested on: EKVX NSCLC
[47] = tested on: XF 498 CNS
[48] = tested on: NCI-H522 lung
[49] = tested on: MALME-3M melanoma
[50] = tested on: OVCAR-3 ovarian
[51] = tested on: HOP-92 NSCLC
[52] = tested on: A498 renal
[53] = tested on: KM20L2 colon
[54] = tested on: SK-MEL-2 melanoma
[55] = tested on: CAKI-1 renal
[56] = tested on: KM12 colon

Measured: TGI

CCN(CC)CCC(=O)NC1c2ccccc2Oc2c(C)cccc21 (stereo unspecified)
> 100 µM: [1] | [2] | [3] | [4] | [5] | [6] | [7] | [8] | [9] | [10] | [11] | [12] | [13] | [14] | [15] | [16] | [17] | [18] | [19] | [20] | [21] | [22] | [23] | [24] | [25] | [26] | [27] | [28] | [29] | [30] | [31] | [32] | [33] | [34] | [35] | [36] | [37] | [38] | [39] | [40] | [41] | [42] | [43] | [44] | [45] | [46] | [47]

COc1ccc(OC)c(NC(=O)C2=C(C)NC(C)=C(C(=O)Nc3cc(OC)ccc3OC)C2c2ccco2)c1
> 100 µM: [1] | [2] | [3] | [48] | [4] | [5] | [6] | [7] | [8] | [9] | [10] | [12] | [13] | [15] | [16] | [17] | [18] | [19] | [20] | [21] | [22] | [23] | [24] | [25] | [27] | [49] | [50] | [28] | [29] | [30] | [31] | [51] | [52] | [53] | [34] | [35] | [54] | [36] | [38] | [39] | [40] | [55] | [42] | [56] | [43] | [44] | [45] | [46] | [47]
